From US20240109891A1, “NOVEL SUBSTITUTED TRICYCLIC AZA-HETEROCYCLES AS SOS1 INHIBITORS” (Viva Star Biosciences (Suzhou) Co., Ltd., priority 2021, published 2024)

Columns and labels:
[1] = target: T1, KRAS G12C and SOS1 proteins (Homo sapiens, UniProt Q07889); experiment: KRAS-G12C/SOS1 binding assay (HTRF); details: Tag1-SOS1 / Tag2-KRAS G12C, 10 μM GTP
T1 construct: purchased Cisbio 63ADK000CB16PEG
T1 sequence (Q07889 1-1333): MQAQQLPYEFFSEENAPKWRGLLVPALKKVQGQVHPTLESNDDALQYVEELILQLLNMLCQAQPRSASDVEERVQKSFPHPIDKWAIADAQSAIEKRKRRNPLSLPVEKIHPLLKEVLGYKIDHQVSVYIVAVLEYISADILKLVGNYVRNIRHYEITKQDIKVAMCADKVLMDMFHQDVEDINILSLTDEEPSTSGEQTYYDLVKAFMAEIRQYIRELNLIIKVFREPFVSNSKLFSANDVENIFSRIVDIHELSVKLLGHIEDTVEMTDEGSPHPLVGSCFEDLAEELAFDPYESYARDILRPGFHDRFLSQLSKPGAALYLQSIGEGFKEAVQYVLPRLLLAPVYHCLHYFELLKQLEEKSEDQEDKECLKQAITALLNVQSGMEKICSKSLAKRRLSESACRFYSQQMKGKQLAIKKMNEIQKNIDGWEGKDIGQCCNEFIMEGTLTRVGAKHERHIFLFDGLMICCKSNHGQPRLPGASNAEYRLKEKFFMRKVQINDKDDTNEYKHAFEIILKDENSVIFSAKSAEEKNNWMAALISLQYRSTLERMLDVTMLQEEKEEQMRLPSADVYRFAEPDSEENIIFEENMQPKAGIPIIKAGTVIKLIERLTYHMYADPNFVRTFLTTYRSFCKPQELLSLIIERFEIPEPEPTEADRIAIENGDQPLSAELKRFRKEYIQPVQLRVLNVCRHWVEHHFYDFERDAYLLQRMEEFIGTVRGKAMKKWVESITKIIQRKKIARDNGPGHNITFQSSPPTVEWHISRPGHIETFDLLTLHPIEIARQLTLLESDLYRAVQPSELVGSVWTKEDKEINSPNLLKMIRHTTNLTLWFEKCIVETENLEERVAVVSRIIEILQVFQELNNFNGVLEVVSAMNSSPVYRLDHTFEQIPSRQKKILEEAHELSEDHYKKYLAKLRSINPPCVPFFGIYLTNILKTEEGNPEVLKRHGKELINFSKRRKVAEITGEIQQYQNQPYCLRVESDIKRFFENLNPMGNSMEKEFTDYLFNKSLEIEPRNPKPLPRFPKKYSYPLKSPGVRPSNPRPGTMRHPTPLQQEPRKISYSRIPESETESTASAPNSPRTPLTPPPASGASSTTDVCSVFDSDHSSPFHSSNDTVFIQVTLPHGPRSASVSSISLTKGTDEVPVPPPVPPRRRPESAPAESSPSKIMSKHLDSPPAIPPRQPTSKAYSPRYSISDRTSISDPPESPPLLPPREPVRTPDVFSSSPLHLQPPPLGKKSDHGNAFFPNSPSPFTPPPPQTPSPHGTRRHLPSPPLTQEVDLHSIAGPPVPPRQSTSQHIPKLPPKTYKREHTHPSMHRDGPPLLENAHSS
Protocol: KRAS-WT (or G12C/G12D/G12V)/SOS1 Binding Assay
Low IC50 values are indicative of high potency of the SOS1 inhibitor compounds in this assay setting.
The KRAS-WT (or G12C/G12D/G12V)/SOS1 binding assay is performed using an assay kit (Cisbio, Cat #63ADK000CB15PEG or 63ADK000CB16PEG/63ADK000CB17PEG/63ADK000CB18PEG) according to the procedure recommended by the manufacturer. • 1) Thaw and prepare the working solution of Tag1-SOS1 protein and Tag2-KRAS-WT (or G12C/G12D/G12V) protein with final concentration of 10 μM GTP (Sigma, Cat #V900868). • 2) Thaw and prepare the working solution of anti-Tag1-Tb^3+ anti-Tag2-XL665. • 3) Dispense 2 μL of serially diluted compound, 4 μL of Tag1-SOS1 protein and 4 μL of Tag2-KRAS-WT (or G12C/G12D/G12V) protein with GTP into a ProxiPlate-384 Plus, white 384-shallow well microplate (PerkinElmer, Cat #6008280). • 4) Incubate the plate for 15 minutes at room temperature. • 5) Dispense 10 μL of pre-mixed anti-Tag1-Tb^3+ and anti-Tag2-XL665 into the plate. • 6) Seal the plate and incubate for 2 hours at room temperature. • 7) Remove the plate sealer and read on PHERAstar FS (BMG LABTECH, PHERAstar FS). • 8) Calculate the ratio of the acceptor and donor emission signals for each individual well using the following equation.
[formula] • 9) IC50 values are fitted and calculated by HTRF signal values and log of compound concentrations to nonlinear regression [Log (inhibitor) vs. Response−Variable Slope (four parameters)] using the GraphPad Prism 8.0.

[2] = target: T2, KRAS-WT and SOS1 proteins (Homo sapiens, UniProt Q07889); experiment: KRAS-WT/SOS1 binding assay (HTRF); details: Tag1-SOS1 / Tag2-KRAS-WT, 10 μM GTP, read-out: Activity Data in Kras: SOS1 Assay, Wild Type
T2 construct: purchased Cisbio 63ADK000CB15PEG
T2 sequence (Q07889 1-1333): T1 sequence (Q07889 1-1333)

[3] = target: T3, KRAS G12D and SOS1 proteins (Homo sapiens, UniProt Q07889); experiment: KRAS-G12D/SOS1 binding assay (HTRF); details: Tag1-SOS1 / Tag2-KRAS G12D, 10 μM GTP
T3 construct: purchased Cisbio 63ADK000CB17PEG
T3 sequence (Q07889 1-1333): T1 sequence (Q07889 1-1333)

| Structure (SMILES) | IC50 [1] | IC50 [2] | IC50 [3] |
| --- | --- | --- | --- |
| Cc1nc(N[C@H](C)c2cccc(C(F)(F)CO)c2)c2cc(-c3ccc(=O)n(C)c3)c3nncn3c2n1 [Example 6, (R)-5-(4-((1-(3-(1,1-difluoro-2-hydroxyethyl)phenyl)ethyl)amino)-2-methyl-[1,2,4]triazolo[4′,3′:1,6]pyrido[2,3-d]pyrimidin-6-yl)-1-methylpyridin-2(1H)-one] | < 100 nM |  |  |
| Cc1nc(N[C@H](C)c2cccc3c2CCC3(F)F)c2cc(-c3ccc(=O)n(C)c3)c3nncn3c2n1 [Example 3, (R)-5-(4-((1-(1,1-difluoro-2,3-dihydro-1H-inden-4-yl)ethyl)amino)-2-methyl-[1,2,4]triazolo[4′,3′:1,6]pyrido[2,3-d]pyrimidin-6-yl)-1-methylpyridin-2(1H)-one] | 100 to 500 nM |  |  |
| Cc1nc(N[C@H](C)c2cccc(C(F)F)c2F)c2cc(-c3ccc(=O)n(C)c3)c3nncn3c2n1 [Example 4, (R)-5-(4-((1-(3-(difluoromethyl)-2-fluorophenyl)ethyl)amino)-2-methyl-[1,2,4]triazolo[4′,3′:1,6]pyrido[2,3-d]pyrimidin-6-yl)-1-methylpyridin-2(1H)-one] | < 100 nM |  |  |
| C[C@@H](Nc1nc2ccnn2c2cc(=O)n(C3CCOCC3)cc12)c1cccc(C(F)F)c1F [Example 59, (R)-5-((1-(3-(difluoromethyl)-2-fluorophenyl)ethyl)amino)-7-(tetrahydro-2H-pyran-4-yl)pyrazolo[1,5-a]pyrido[3,4-e]pyrimidin-8(7H)-one] | < 100 nM |  |  |
| COc1cc2c(cc1-c1ccc(=O)n(C)c1)c(N[C@H](C)c1cccc(C(F)F)c1F)nc1ccnn12 [Example 48, (R)-5-(5-((1-(3-(difluoromethyl)-2-fluorophenyl)ethyl)amino)-8-methoxypyrazolo[1,5-a]quinazolin-7-yl)-1-methylpyridin-2(1H)-one] | 100 to 500 nM |  |  |
| C[C@@H](Nc1nc2c(F)cnn2c2cc(=O)n(C3CC(F)(F)C3)cc12)c1cccc(C(F)(F)CO)c1 [Example 78, (R)-5-((1-(3-(1,1-difluoro-2-hydroxyethyl)phenyl)ethyl)amino)-7-(3,3-difluorocyclobutyl)-3-fluoropyrazolo[1,5-a]pyrido[3,4-e]pyrimidin-8(7H)-one] |  | < 100 nM | < 100 nM |
| CC(=O)N1CCC(n2cc3c(N[C@H](C)c4cccc(C(F)(F)CO)c4)nc4ccnn4c3cc2=O)CC1 [Example 75, 11-(1-acetylpiperidin-4-yl)-8-{[(1R)-1-[3-(1,1-difluoro-2-hydroxyethyl)phenyl]ethyl]amino}-2,3,7,11-tetraazatricyclo[7.4.0.0^{2,6}]trideca-1(13),3,5,7,9-pentaen-12-one] |  | < 100 nM | < 100 nM |
| Cc1nc(N[C@H](C)c2cccc(C(F)(F)CO)c2)c2cc([C@H]3CC[C@@H](O)CC3)c3nncn3c2n1 [Example 15, Cis-(R)-4-(4-((1-(3-(1,1-difluoro-2-hydroxyethyl)phenyl)ethyl)amino)-2-methyl-[1,2,4]triazolo[4′,3′:1,6]pyrido[2,3-d]pyrimidin-6-yl)cyclohexan-1-ol] |  | < 100 nM | < 100 nM |
| C[C@@H](Nc1nc2ccnn2c2cc(=O)n(C3(C)CC3)cc12)c1cccc(C(F)(F)CO)c1 [Example 61, (R)-5-((1-(3-(1,1-difluoro-2-hydroxyethyl)phenyl)ethyl)amino)-7-(1-methylcyclopropyl)pyrazolo[1,5-a]pyrido[3,4-e]pyrimidin-8(7H)-one] |  | < 100 nM | < 100 nM |
| C[C@@H](Nc1nc2ccnn2c2cc(=O)n(C3(C)CC3)cc12)c1cccc(C(C)(F)F)c1F [Example 64, (R)-5-((1-(3-(1,1-difluoroethyl)-2-fluorophenyl)ethyl)amino)-7-(1-methylcyclopropyl)pyrazolo[1,5-a]pyrido[3,4-e]pyrimidin-8(7H)-one] |  | < 100 nM | < 100 nM |
| Cc1nc(N[C@H](C)c2cccc3c2CCC3(F)F)c2cc(-c3ccc(=O)n(C)c3)c3c(cnn3C)c2n1 [Example 25, (R)-5-(4-((1-(1,1-difluoro-2,3-dihydro-1H-inden-4-yl)ethyl)amino)-2,7-dimethyl-7H-pyrazolo[3,4-h]quinazolin-6-yl)-1-methylpyridin-2(1H)-one] |  | < 100 nM | < 100 nM |
| Cc1nc(N[C@H](C)c2cccc3c2CCC3(F)F)c2cc(O[C@H]3CCOC3)c3nncn3c2n1 [Example 19, N-((R)-1-(1,1-difluoro-2,3-dihydro-1H-inden-4-yl)ethyl)-2-methyl-6-(((S)-tetrahydrofuran-3-yl)oxy)-[1,2,4]triazolo[4′,3′:1,6]pyrido[2,3-d]pyrimidin-4-amine] |  | < 100 nM | < 100 nM |
| Cc1c([C@@H](C)Nc2nc3ccnn3c3cc(=O)n(C4(C)CC4)cc23)cccc1C(F)(F)F [Example 63, (R)-5-((1-(2-methyl-3-(trifluoromethyl)phenyl)ethyl)amino)-7-(1-methylcyclopropyl)pyrazolo[1,5-a]pyrido[3,4-e]pyrimidin-8(7H)-one] |  | < 100 nM | < 100 nM |
| C[C@@H](Nc1nc(C(F)(F)F)nc2c1cc(-c1ccc(=O)n(C)c1)c1c2cnn1C)c1cccc(C(F)(F)CO)c1 [Example 32, (R)-5-(4-((1-(3-(1,1-difluoro-2-hydroxyethyl)phenyl)ethyl)amino)-7-methyl-2-(trifluoromethyl)-7H-pyrazolo[3,4-h]quinazolin-6-yl)-1-methylpyridin-2(1H)-one] |  | 100 to 500 nM | 100 to 500 nM |
| C[C@@H](Nc1nc2ccnn2c2cc(=O)n(C3(C)CC3)cc12)c1cccc(C(F)(F)F)n1 [Example 65, (R)-7-(1-methylcyclopropyl)-5-((1-(6-(trifluoromethyl)pyridin-2-yl)ethyl)amino)pyrazolo[1,5-a]pyrido[3,4-e]pyrimidin-8(7H)-one] |  | 500 to 5000 nM | 500 to 5000 nM |
| Cc1nc(N[C@H](C)c2cc(N)cc(C(F)(F)F)c2)c2cc(O[C@H]3CCOC3)c3c(cnn3C)c2n1 [Example 37, N-((R)-1-(3-amino-5-(trifluoromethyl)phenyl)ethyl)-2,7-dimethyl-6-(((S)-tetrahydrofuran-3-yl)oxy)-7H-pyrazolo[3,4-h]quinazolin-4-amine] |  | < 100 nM | < 100 nM |
| C[C@@H](Nc1nc2ccnn2c2cc(=O)n([C@H]3CCOC3)cc12)c1cccc2c1CCC2(F)F [Example 71, 5-(((R)-1-(1,1-difluoro-2,3-dihydro-1H-inden-4-yl)ethyl)amino)-7-((S)-tetrahydrofuran-3-yl)pyrazolo[1,5-a]pyrido[3,4-e]pyrimidin-8(7H)-one] |  | < 100 nM | < 100 nM |
